From PubChem BioAssay (NCI)
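Cultured in 96-well plates, cells were exposed to test compound for 48 hours across five concentrations. Abbreviation: GI50, concentration required for 50% inhibition of growth. The concentration for full growth arrest is given as TGI.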

Key:
Experiment in all cases: NCI anticancer screen, dose series, 48 h
[1] = tested on: 786-0 renal
[2] = tested on: A498 renal
[3] = tested on: A549 NSCLC
[4] = tested on: ACHN renal
[5] = tested on: BT-549 breast
[6] = tested on: CAKI-1 renal
[7] = tested on: CCRF-CEM leukemia
[8] = tested on: COLO 205 colon
[9] = tested on: DU-145 prostate
[10] = tested on: EKVX NSCLC
[11] = tested on: HCC-2998 colon
[12] = tested on: HCT-116 colon
[13] = tested on: HCT-15 colon
[14] = tested on: HL-60(TB) leukemia
[15] = tested on: HOP-62 NSCLC
[16] = tested on: HOP-92 NSCLC
[17] = tested on: HS 578T breast
[18] = tested on: HT29 colon
[19] = tested on: IGROV1 ovarian
[20] = tested on: K-562 leukemia
[21] = tested on: KM12 colon
[22] = tested on: LOX IMVI melanoma
[23] = tested on: M14 melanoma
[24] = tested on: MCF7 breast
[25] = tested on: MDA-MB-231 breast
[26] = tested on: MDA-MB-435
[27] = tested on: MOLT-4 leukemia
[28] = tested on: NCI-H226 lung
[29] = tested on: NCI-H23 lung
[30] = tested on: NCI-H460 lung
[31] = tested on: NCI-H522 lung
[32] = tested on: NCI/ADR-RES ovarian
[33] = tested on: OVCAR-3 ovarian
[34] = tested on: OVCAR-4 ovarian
[35] = tested on: OVCAR-5 ovarian
[36] = tested on: OVCAR-8 ovarian
[37] = tested on: PC-3 prostate
[38] = tested on: RPMI-8226 leukemia
[39] = tested on: RXF 393 renal
[40] = tested on: SF-268 CNS
[41] = tested on: SF-295 CNS
[42] = tested on: SF-539 CNS
[43] = tested on: SK-MEL-2 melanoma
[44] = tested on: SK-MEL-28 melanoma
[45] = tested on: SK-MEL-5 melanoma
[46] = tested on: SK-OV-3 ovarian
[47] = tested on: SN12C renal
[48] = tested on: SNB-19 CNS
[49] = tested on: SNB-75 CNS
[50] = tested on: SR leukemia
[51] = tested on: SW-620 colon
[52] = tested on: T-47D breast
[53] = tested on: TK-10 renal
[54] = tested on: U251 CNS
[55] = tested on: UACC-257 melanoma
[56] = tested on: UACC-62 melanoma
[57] = tested on: UO-31 renal
[58] = tested on: MALME-3M melanoma

N#Cc1c(N/N=C\c2ccc(Cl)cc2)nc(N)nc1N1CCOCC1
GI50 [1]: 67.1 µM
TGI [1]: > 100 µM
GI50 [2]: 25.5 µM
TGI [2]: 69.2 µM
GI50 [3]: 29.6 µM
TGI [3]: > 100 µM
GI50 [4]: 23.1 µM
TGI [4]: 92.6 µM
GI50 [5]: > 100 µM
TGI [5]: > 100 µM
GI50 [6]: 43.3 µM
TGI [6]: > 100 µM
GI50 [7]: 25.8 µM
TGI [7]: 78.9 µM
GI50 [8]: 66.2 µM
TGI [8]: > 100 µM
GI50 [9]: 28.8 µM
TGI [9]: > 100 µM
GI50 [10]: 93.9 µM
TGI [10]: > 100 µM
GI50 [11]: 22 µM
TGI [11]: > 100 µM
GI50 [12]: 29.7 µM
TGI [12]: > 100 µM
GI50 [13]: 26.7 µM
TGI [13]: 97.3 µM
GI50 [14]: 9.84 µM
TGI [14]: 27.2 µM
GI50 [15]: 86.6 µM
TGI [15]: > 100 µM
GI50 [16]: 36.3 µM
TGI [16]: > 100 µM
GI50 [17]: 41.1 µM
TGI [17]: > 100 µM
GI50 [18]: 26.7 µM
TGI [18]: > 100 µM
GI50 [19]: 26 µM
TGI [19]: 97.4 µM
GI50 [20]: 13 µM
TGI [20]: 32.3 µM
GI50 [21]: 36.1 µM
TGI [21]: > 100 µM
GI50 [22]: 21.6 µM
TGI [22]: 62.4 µM
GI50 [23]: 67.4 µM
TGI [23]: > 100 µM
GI50 [24]: 77.3 µM
TGI [24]: > 100 µM
GI50 [25]: 25.3 µM
TGI [25]: > 100 µM
GI50 [26]: 35 µM
TGI [26]: > 100 µM
GI50 [27]: 13.6 µM
TGI [27]: 34.4 µM
GI50 [28]: 53.6 µM
TGI [28]: > 100 µM
GI50 [29]: 87.8 µM
TGI [29]: > 100 µM
GI50 [30]: 87.7 µM
TGI [30]: > 100 µM
GI50 [31]: 32.5 µM
TGI [31]: > 100 µM
GI50 [32]: 43.1 µM
TGI [32]: > 100 µM
GI50 [33]: 22.5 µM
TGI [33]: 60.5 µM
GI50 [34]: 94.4 µM
TGI [34]: > 100 µM
GI50 [35]: > 100 µM
TGI [35]: > 100 µM
GI50 [36]: 31.4 µM
TGI [36]: > 100 µM
GI50 [37]: 24.6 µM
TGI [37]: > 100 µM
GI50 [38]: 16.4 µM
TGI [38]: 44.3 µM
GI50 [39]: 15 µM
TGI [39]: > 100 µM
GI50 [40]: > 100 µM
TGI [40]: > 100 µM
GI50 [41]: 33.2 µM
TGI [41]: > 100 µM
GI50 [42]: 75.1 µM
TGI [42]: > 100 µM
GI50 [43]: 99.2 µM
TGI [43]: > 100 µM
GI50 [44]: > 100 µM
TGI [44]: > 100 µM
GI50 [45]: 19 µM
TGI [45]: > 100 µM
GI50 [46]: > 100 µM
TGI [46]: > 100 µM
GI50 [47]: 55.1 µM
TGI [47]: > 100 µM
GI50 [48]: > 100 µM
TGI [48]: > 100 µM
GI50 [49]: 57.3 µM
TGI [49]: > 100 µM
GI50 [50]: 11.7 µM
TGI [50]: 28.9 µM
GI50 [51]: 47.1 µM
TGI [51]: > 100 µM
GI50 [52]: > 100 µM
TGI [52]: > 100 µM
GI50 [53]: 40.1 µM
TGI [53]: > 100 µM
GI50 [54]: 40.4 µM
TGI [54]: > 100 µM
GI50 [55]: 32.2 µM
TGI [55]: > 100 µM
GI50 [56]: 25.4 µM
TGI [56]: > 100 µM
GI50 [57]: 39.6 µM
TGI [57]: > 100 µM

Nc1ncn([C@H]2C[C@H](OP(=O)(O)OC[C@H]3O[C@@H](n4cnc5c(=O)[nH]c(N)nc54)C[C@@H]3O)[C@@H](CO)O2)c(=O)n1
GI50 [1]: 71.8 µM
TGI [1]: > 100 µM
GI50 [2]: > 100 µM
TGI [2]: > 100 µM
GI50 [3]: 82.9 µM
TGI [3]: > 100 µM
GI50 [4]: 38.4 µM
TGI [4]: > 100 µM
GI50 [5]: > 100 µM
TGI [5]: > 100 µM
GI50 [6]: > 100 µM
TGI [6]: > 100 µM
GI50 [7]: 9.01 µM
TGI [7]: > 100 µM
GI50 [8]: 41.4 µM
TGI [8]: > 100 µM
GI50 [9]: > 100 µM
TGI [9]: > 100 µM
GI50 [10]: > 100 µM
TGI [10]: > 100 µM
GI50 [11]: > 100 µM
TGI [11]: > 100 µM
GI50 [12]: 23 µM
TGI [12]: > 100 µM
GI50 [14]: > 100 µM
TGI [14]: > 100 µM
GI50 [15]: 9.27 µM
TGI [15]: > 100 µM
GI50 [16]: > 100 µM
TGI [16]: > 100 µM
GI50 [17]: > 100 µM
TGI [17]: > 100 µM
GI50 [18]: 47.1 µM
TGI [18]: > 100 µM
GI50 [19]: > 100 µM
TGI [19]: > 100 µM
GI50 [22]: 57 µM
TGI [22]: > 100 µM
GI50 [23]: > 100 µM
TGI [23]: > 100 µM
GI50 [58]: > 100 µM
TGI [58]: > 100 µM
GI50 [24]: 51.9 µM
TGI [24]: > 100 µM
GI50 [25]: > 100 µM
TGI [25]: > 100 µM
GI50 [26]: > 100 µM
TGI [26]: > 100 µM
GI50 [27]: > 100 µM
TGI [27]: > 100 µM
GI50 [28]: > 100 µM
TGI [28]: > 100 µM
GI50 [29]: > 100 µM
TGI [29]: > 100 µM
GI50 [30]: 7.44 µM
TGI [30]: > 100 µM
GI50 [31]: > 100 µM
TGI [31]: > 100 µM
GI50 [32]: > 100 µM
TGI [32]: > 100 µM
GI50 [33]: > 100 µM
TGI [33]: > 100 µM
GI50 [34]: > 100 µM
TGI [34]: > 100 µM
GI50 [35]: > 100 µM
TGI [35]: > 100 µM
GI50 [36]: 26.6 µM
TGI [36]: > 100 µM
GI50 [38]: > 100 µM
TGI [38]: > 100 µM
GI50 [39]: 12.2 µM
TGI [39]: > 100 µM
GI50 [40]: > 100 µM
TGI [40]: > 100 µM
GI50 [41]: > 100 µM
TGI [41]: > 100 µM
GI50 [42]: > 100 µM
TGI [42]: > 100 µM
GI50 [43]: > 100 µM
TGI [43]: > 100 µM
GI50 [44]: > 100 µM
TGI [44]: > 100 µM
GI50 [45]: > 100 µM
TGI [45]: > 100 µM
GI50 [46]: > 100 µM
TGI [46]: > 100 µM
GI50 [47]: 51.4 µM
TGI [47]: > 100 µM
GI50 [48]: > 100 µM
TGI [48]: > 100 µM
GI50 [49]: > 100 µM
TGI [49]: > 100 µM
GI50 [50]: > 100 µM
TGI [50]: > 100 µM
GI50 [51]: > 100 µM
TGI [51]: > 100 µM
GI50 [52]: > 100 µM
TGI [52]: > 100 µM
GI50 [53]: > 100 µM
TGI [53]: > 100 µM
GI50 [54]: > 100 µM
TGI [54]: > 100 µM
GI50 [55]: > 100 µM
TGI [55]: > 100 µM
GI50 [56]: > 100 µM
TGI [56]: > 100 µM
GI50 [57]: > 100 µM
TGI [57]: > 100 µM
